This passage reports EC50 results from PubChem BioAssay AID1404 (The Scripps Research Institute Molecular Screening Center, 2008).

The structures appear in SMILES notation. The source made the active and inactive calls.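 Rule for the calls: active = EC50 for STAT3 reporter activation at or below 10 µM; inactive = the rest.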

For the test, the system named is U3A cells, IL-6 STAT3 luciferase reporter, luminescence. As to the kind of experiment: IL-6-driven STAT3 luciferase signal enhancement – U3A cells, STAT1-deficient, luminescence, IL-6 stimulus, counter-screen for STAT1 activator project, dose response (AID 1404). On the technique in general: The purpose of a counterscreen is to sort out artefacts and off-target activity.
A word on the EC50: it is the concentration needed to bring the measured effect to its halfway point. For `COc1ccc(-c2cc3ncc(-c4ccccc4)c(N)n3n2)cc1`, the EC50 is > 55.7 µM (inactive).

For `CCOC(=O)c1ccc2nc(NC(C)=O)sc2c1`, the EC50 was > 55.7 µM (inactive).

`Fc1ccccc1CSc1nnc(-c2cccnc2)o1`: the EC50 is > 55.7 µM (inactive).

For `Cc1nc2ccc(-c3nc4ccccc4o3)cc2[nH]1`, the EC50 was > 55.7 µM (inactive).

On to `O=C(NCCC1=CCCCC1)c1ccc(F)cc1`, for which the EC50 is > 55.7 µM (inactive).

On to `O=C(/C=C/c1ccc(F)cc1)Nc1nc2ccccc2[nH]1`, for which the EC50 was > 55.7 µM (inactive).

For `Nc1ccc2nn(-c3ccccc3)nc2c1`, the EC50 was > 55.7 µM (inactive).

In the case of `COc1ccc(-c2csc(N3C(=O)CNC3=S)n2)cc1`, the EC50 is > 55.7 µM (inactive).

Turning to `CC(=O)Nc1ccccc1C(=O)OCc1cccc(F)c1`, the EC50 is > 55.7 µM (inactive).
